Two compounds from the NIST ThermoML archive (doi:10.1021/je049571n) can be followed below.

The conditions of data set [1]: Liquid; for mass density: 101.33 kPa.
A short description of data set [2]: refractive index (Na D-line) (dimensionless). Particulars: 101.33 kPa, Liquid, Standard Abbe refractometry.

Numbers after ± are expanded uncertainties.

On to `CC(=O)O` [acetic acid], for which the mass density – broadly, the mass of a sample divided by its volume – in data set [1] (298.2 K) is given as 1047.22 ± 0.28 kg/m3. Besides, the Normal boiling temperature in data set [1] stood at 118.1 ± 0.2 °C. Besides, the refractive index (commonly a measure of how strongly the sample bends light) in data set [2] (293.2 K) came to 1.3719 ± 0.0012.
For the compound `COC(=O)CCCC(=O)OC` [dimethyl pentanedioate], in data set [1] (293.2 K), the mass density was determined as 1087.74 ± 0.65 kg/m3. Further, the Normal boiling temperature in data set [1] turned out to be 214.1 ± 0.2 °C. In data set [2] (298.2 K), the refractive index is listed as 1.4242 ± 0.0012.
